Laboratory results: US8455475B2 (Gruenenthal GmbH, priority 2009, dated 2013)

Each compound was assayed against T1, rat B1R (bradykinin receptor 1) (Rattus norvegicus, UniProt P97583) (assay: FLIPR Ca2+ assay (Fluo-4) on CHO K1 cells stably transfected with the B1R gene of the rat (rB1R cells): % inhibition at 10 μM / IC50, agonist Des-Arg9-bradykinin). Details: CHO-K1, rat B1R.
T1 construct: expressed in transfected cells; host or cells: CHO K1 cells
T1 sequence (P97583 1-337): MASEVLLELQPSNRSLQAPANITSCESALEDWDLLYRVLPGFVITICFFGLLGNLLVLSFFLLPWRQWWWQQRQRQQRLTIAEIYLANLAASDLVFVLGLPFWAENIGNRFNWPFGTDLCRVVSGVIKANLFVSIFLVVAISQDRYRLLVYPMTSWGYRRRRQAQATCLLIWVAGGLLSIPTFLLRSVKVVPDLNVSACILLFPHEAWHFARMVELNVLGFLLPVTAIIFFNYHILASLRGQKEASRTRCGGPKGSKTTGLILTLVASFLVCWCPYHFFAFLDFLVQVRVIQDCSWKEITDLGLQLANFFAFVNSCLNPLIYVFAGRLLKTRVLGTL
Format: cell-based
How it was run: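 Stably transfected CHO K1 cells loaded with Fluo-4 and read on FLIPR (λex 488, λem 540 nm; peak fluorescence). Test substance (10 μM) added first, then after 10–20 min the agonist at EC80; % inhibition versus maximum achievable inhibition. IC50 from several concentrations, n=2–3, N≥2.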

SMILES	inhibition at 10 µM
COc1ccc(CN2CCC3(CC2)CCN(C(=O)c2ccc4c(c2)C(N(C)C(=O)c2ccccc2Cl)CC4)C3)cc1F (centres unmarked) [IND_CC-552, 2-Chloro-N-[6-[8-[(3-fluoro-4-methoxy-phenyl)-methyl]-2,8-diazaspiro[4.5]-decane-2-carbonyl]-2,3-dihydro-1H-inden-1-yl]-N-methyl-benzamide]	68%
CC(C)(C)CC(=O)NC1CCc2ccc(C(=O)N3CCC4(CC3)CCN(c3ccncc3)C4)cc21 (centres unmarked) [IND_CC-373, 3,3-Dimethyl-N-[6-(2-pyridin-4-yl-2,8-diazaspiro[4.5]decane-8-carbonyl)-2,3-dihydro-1H-inden-1-yl]-butyramide]	102%
O=C(NC1CCc2ccc(C(=O)N3CCC4(CCN(CCc5ccccc5)CC4)C3)cc21)c1cc(C(F)(F)F)ccc1Cl (centres unmarked) [IND_CC-690, 2-Chloro-N-[6-(8-phenethyl-2,8-diazaspiro[4.5]decane-2-carbonyl)-2,3-dihydro-1H-inden-1-yl]-5-(trifluoromethyl)-benzamide]	85%
N#Cc1cccc(CN2CCC3(CC2)CCN(C(=O)c2ccc4c(c2)C(NC(=O)c2cc(Cl)ccc2F)CC4)C3)c1 (centres unmarked) [IND_CC-651, 5-Chloro-N-[6-[8-[(3-cyano-phenyl)-methyl]-2,8-diazaspiro[4.5]decane-2-carbonyl]-2,3-dihydro-1H-inden-1-yl]-2-fluoro-benzamide]	76%
CN(C1CCc2ccc(C(=O)N3CCC4(CC3)CCN(c3ccncc3)CC4)cc21)S(=O)(=O)c1cc(Cl)c(Cl)cc1Cl (centres unmarked) [IND_CC-362, 2,4,5-Trichloro-N-methyl-N-[6-(9-pyridin-4-yl-3,9-diazaspiro[5.5]undecane-3-carbonyl)-2,3-dihydro-1H-inden-1-yl]-benzenesulfonic acid amide]	81%
Cc1cccc(Cl)c1S(=O)(=O)N(C)C1CCc2ccc(C(=O)N3CCC4(CC3)CCN(c3ccncc3)CC4)cc21 (centres unmarked) [IND_CC-227, 2-Chloro-N,6-dimethyl-N-[6-(9-pyridin-4-yl-3,9-diazaspiro[5.5]undecane-3-carbonyl)-2,3-dihydro-1H-inden-1-yl]-benzenesulfonic acid amide]	97%
Cc1cc(F)ccc1S(=O)(=O)N(C)C1CCc2ccc(C(=O)N3CCC4(CC3)CCN(c3ccncc3)CC4)cc21 (centres unmarked) [IND_CC-326, 4-Fluoro-N,2-dimethyl-N-[6-(9-pyridin-4-yl-3,9-diazaspiro[5.5]undecane-3-carbonyl)-2,3-dihydro-1H-inden-1-yl]-benzenesulfonic acid amide]	100%
Cc1cccc(C(=O)NC2CCc3ccc(C(=O)N4CCC5(CC4)CCN(c4ccncc4)C5)cc32)c1C (centres unmarked) [IND_CC-388, 2,3-Dimethyl-N-[6-(2-pyridin-4-yl-2,8-diazaspiro[4.5]decane-8-carbonyl)-2,3-dihydro-1H-inden-1-yl]-benzamide]	101%
N#Cc1cccc(CN2CCC3(CC2)CCN(C(=O)c2ccc4c(c2)C(N(C(=O)c2ccccc2Cl)C2CC2)CC4)C3)c1 (centres unmarked) [IND_CC-540, 2-Chloro-N-[6-[8-[(3-cyano-phenyl)-methyl]-2,8-diazaspiro[4.5]decane-2-carbonyl]-2,3-dihydro-1H-inden-1-yl]-N-cyclopropyl-benzamide]	82%
COc1ccc(C(=O)NC2CCc3ccc(C(=O)N4CCC5(CC4)CCN(c4ccncc4)C5)cc32)c(F)c1 (centres unmarked) [IND_CC-298, 2-Fluoro-4-methoxy-N-[6-(2-pyridin-4-yl-2,8-diazaspiro[4.5]decane-8-carbonyl)-2,3-dihydro-1H-inden-1-yl]-benzamide]	74%
O=C(NC1CCc2ccc(C(=O)N3CCC4(CCN(c5ccncc5)CC4)C3)cc21)C1CCCCC1 (centres unmarked) [IND_CC-367, N-[6-(8-Pyridin-4-yl-2,8-diazaspiro[4.5]decane-2-carbonyl)-2,3-dihydro-1H-inden-1-yl]-cyclohexanecarboxylic acid amide]	104%
O=C(c1ccc2c(c1)C(NS(=O)(=O)Cc1cccc(Cl)c1)CC2)N1CCC2(CC1)CCN(c1ccncc1)C2 (centres unmarked) [IND_CC-353, 1-(3-Chlorophenyl)-N-[6-(2-pyridin-4-yl-2,8-diazaspiro[4.5]decane-8-carbonyl)-2,3-dihydro-1H-inden-1-yl]-methanesulfonic acid amide]	97%
O=C(NC1CCc2ccc(CC(=O)N3CCC4(CCN(Cc5ccc6nccnc6c5)CC4)C3)cc21)c1ccccc1Cl (centres unmarked) [IND_CC-805, 2-Chloro-N-[6-[2-oxo-2-[8-(quinoxalin-6-yl-methyl)-3,8-diazaspiro[4.5]decan-3-yl]-ethyl]-2,3-dihydro-1H-inden-1-yl]-benzamide]	51%
Cc1noc(C)c1CN1CCC2(CC1)CCN(C(=O)c1ccc3c(c1)C(NC(=O)c1cc(C(F)(F)F)ccc1Cl)CC3)CC2 (centres unmarked) [IND_CC-665, 2-Chloro-N-[6-[9-[(3,5-dimethyl-isoxazol-4-yl)-methyl]-3,9-diazaspiro[5.5]-undecane-3-carbonyl]-2,3-dihydro-1H-inden-1-yl]-5-(trifluoromethyl)benzamide]	67%
O=C(NC1CCc2ccc(C(=O)N3CCC4(CCN(Cc5ccc6ncccc6c5)CC4)C3)cc21)c1c(F)cccc1Cl (centres unmarked) [IND_CC-774, 2-Chloro-6-fluoro-N-[6-[8-(quinolin-6-yl-methyl)-2,8-diazaspiro[4.5]decane-2-carbonyl]-2,3-dihydro-1H-inden-1-yl]-benzamide]	81%
N#Cc1cccc(CN2CCC3(CC2)CCN(C(=O)c2ccc4c(c2)C(NC(=O)c2c(F)cccc2Cl)CC4)CC3)c1 (centres unmarked) [IND_CC-800, 2-Chloro-N-[6-[9-[(3-cyano-phenyl)-methyl]-3,9-diazaspiro[5.5]undecane-3-carbonyl]-2,3-dihydro-1H-inden-1-yl]-6-fluoro-benzamide]	97%
CN(C)c1ncc(CN2CCC3(CC2)CCN(C(=O)c2ccc4c(c2)C(NC(=O)c2c(F)cccc2Cl)CC4)C3)cn1 (centres unmarked) [IND_CC-773, 2-Chloro-N-[6-[8-[(2-dimethylamino-pyrimidin-5-yl)-methyl]-2,8-diazaspiro-[4.5]decane-2-carbonyl]-2,3-dihydro-1H-inden-1-yl]-6-fluoro-benzamide]	80%

More lines, now with the values ahead:

inhibition at 10 µM	SMILES
96%	O=C(NC1CCc2ccc(C(=O)N3CCC4(CCN(Cc5c(F)cccc5Cl)CC4)CC3)cc21)c1ccccc1Cl (centres unmarked) [IND_CC-530, 2-Chloro-N-[6-[9-[(2-chloro-6-fluoro-phenyl)-methyl]-3,9-diazaspiro[5.5]undecane-3-carbonyl]-2,3-dihydro-1H-inden-1-yl]-benzamide]
71%	O=C(NC1CCc2ccc(C(=O)N3CCC4(CCN(C(=O)Nc5ccc(F)c(Cl)c5)CC4)C3)cc21)c1ccccc1Cl (centres unmarked) [IND_CC-502, 2-[3-[(2-Chloro-benzoyl)amino]-2,3-dihydro-1H-indene-5-carbonyl]-N-(3-chloro-4-fluoro-phenyl)-2,8-diazaspiro[4.5]decane-8-carboxylic acid amide]
75%	CCC(CC)CN1CCC2(CC1)CCN(C(=O)Cc1ccc3c(c1)C(NC(=O)c1ccccc1Cl)CC3)C2 (centres unmarked) [IND_CC-806, 2-Chloro-N-[6-[2-[8-(2-ethyl-butyl)-3,8-diazaspiro[4.5]decan-3-yl]-2-oxo-ethyl]-2,3-dihydro-1H-inden-1-yl]-benzamide]
77%	Cn1nc(C(C)(C)C)cc1C(=O)N1CCC2(CCN(C(=O)c3ccc4c(c3)C(NC(=O)c3ccccc3Cl)CC4)CC2)CC1 (centres unmarked) [IND_CC-601, N-[6-[9-(5-tert-Butyl-2-methyl-2H-pyrazole-3-carbonyl)-3,9-diazaspiro-[5.5]undecane-3-carbonyl]-2,3-dihydro-1H-inden-1-yl]-2-chloro-benzamide]
73%	O=C(NC1CCc2ccc(C(=O)N3CCC4(CCN(Cc5ccccn5)CC4)CC3)cc21)c1cc(C(F)(F)F)ccc1Cl (centres unmarked) [IND_CC-640, 2-Chloro-N-[6-[9-(pyridin-2-yl-methyl)-3,9-diazaspiro[5.5]undecane-3-carbonyl]-2,3-dihydro-1H-inden-1-yl]-5-(trifluoromethyl)-benzamide]
91%	CCCNC(=O)N1CCC2(CC1)CCN(C(=O)c1ccc3c(c1)C(NC(=O)c1ccccc1Cl)CC3)CC2 (centres unmarked) [IND_CC-704, 3-[3-[(2-Chloro-benzoyl)amino]-2,3-dihydro-1H-indene-5-carbonyl]-N-propyl-3,9-diazaspiro[5.5]undecane-9-carboxylic acid amide]
50%	O=C(NC1CCc2ccc(C(=O)N3CCC4(CCN(Cc5c[nH]cn5)CC4)CC3)cc21)c1cc(Cl)ccc1F (centres unmarked) [IND_CC-625, 5-Chloro-2-fluoro-N-[6-[9-(1H-imidazol-4-yl-methyl)-3,9-diazaspiro[5.5]undecane-3-carbonyl]-2,3-dihydro-1H-inden-1-yl]-benzamide]
52%	CC(C)CN1CCC2(CC1)CCN(C(=O)c1ccc3c(c1)C(NC(=O)c1cccc(Cl)c1Cl)CC3)CC2 (centres unmarked) [IND_CC-757, 2,3-Dichloro-N-[6-[9-(2-methyl-propyl)-3,9-diazaspiro[5.5]undecane-3-carbonyl]-2,3-dihydro-1H-inden-1-yl]-benzamide]
85%	N#Cc1ccc(CN2CCC3(CC2)CCN(C(=O)c2ccc4c(c2)C(NC(=O)c2ccccc2Cl)CC4)C3)cc1 (centres unmarked) [IND_CC-561, 2-Chloro-N-[6-[8-[(4-cyano-phenyl)-methyl]-2,8-diazaspiro[4.5]decane-2-carbonyl]-2,3-dihydro-1H-inden-1-yl]-benzamide]
